Some test systems named below: HS 578T breast; MOLT-4 leukemia; NCI-H460 lung; NCI/ADR-RES ovarian; OVCAR-3 ovarian; OVCAR-4 ovarian; RPMI-8226 leukemia; SF-295 CNS; SK-OV-3 ovarian; T-47D breast.
Assay in all cases: growth of human tumour cells (NCI), 48 h

Data on 10 molecules can be found in PubChem BioAssay (NCI).

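Values below derive from 48-hour exposures of cells grown in 96-well plates, with endpoints linearly interpolated between the two concentrations bracketing the appropriate inhibition level. At the GI50, growth is halved. TGI: concentration producing complete growth inhibition.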

For `CC[C@]12C=CCN3CC[C@@]4(c5ccc(OC)cc5N(C)[C@H]4[C@@](O)(C(=O)OC)[C@@H]1OC(=O)CCCC[P+](c1ccccc1)(c1ccccc1)c1ccccc1)[C@@H]32`, the GI50 in the test with HS 578T breast was 1.34 µM; with MOLT-4 leukemia it was 1.36 µM; with NCI-H460 lung it was 1.7 µM; in the test on NCI/ADR-RES ovarian it was over 100 µM; in the test on OVCAR-3 ovarian, 0.41 µM; in the test on OVCAR-4 ovarian it was 0.342 µM. The GI50 with RPMI-8226 leukemia is 0.332 µM; with SF-295 CNS, 2.65 µM; with SK-OV-3 ovarian, 0.725 µM; in the test with T-47D breast, 0.396 µM. The TGI is 9.11 µM in the test on HS 578T breast; 5.29 µM with MOLT-4 leukemia; 11.6 µM with NCI-H460 lung; over 100 µM in the test on NCI/ADR-RES ovarian; 2.23 µM with OVCAR-3 ovarian; 10.8 µM with OVCAR-4 ovarian. Further, the TGI in the test on RPMI-8226 leukemia turned out to be 2.11 µM; in the test with SF-295 CNS, 9.04 µM; in the test on SK-OV-3 ovarian, 5.9 µM; in the test with T-47D breast it was 12.7 µM.

In the case of `CC(C)(C)n1nc(C2CC2)cc1NC(=O)Nc1ccc(Cl)cc1`, the TGI in the test with HS 578T breast, in the test with MOLT-4 leukemia, in the test with NCI-H460 lung, in the test on NCI/ADR-RES ovarian, in the test on OVCAR-3 ovarian and in the test with OVCAR-4 ovarian was over 100 µM each time. Moreover, the TGI in the test on RPMI-8226 leukemia, in the test with SF-295 CNS, in the test with SK-OV-3 ovarian and in the test with T-47D breast was over 100 µM throughout.

Consider `COC1=CC(=O)c2c(O)c3c(c(O)c2C1=O)OC1(Oc2c(cc4cc(C)oc(=O)c4c2O)CC1O)C3O` (stereo not drawn), for which the TGI in the test with HS 578T breast was over 100 µM; with MOLT-4 leukemia, over 100 µM; in the test on NCI-H460 lung, 67.8 µM; in the test on NCI/ADR-RES ovarian, over 100 µM; in the test on OVCAR-3 ovarian it was over 100 µM; in the test on OVCAR-4 ovarian it was 67.5 µM. In addition, the TGI in the test with RPMI-8226 leukemia, with SF-295 CNS, in the test on SK-OV-3 ovarian and with T-47D breast was over 100 µM each time.

Turning to `CCCCCCCC(=O)SCC/C=C/[C@@H]1CC(=O)NCc2cccc(n2)C2=N[C@@](C)(CS2)C(=O)N[C@@H](C(C)C)C(=O)O1`, the GI50 in the test on HS 578T breast is 0.0209 µM; with MOLT-4 leukemia, 0.0702 µM; with NCI-H460 lung it was 0.0167 µM; in the test with NCI/ADR-RES ovarian it was 0.319 µM; with OVCAR-3 ovarian, 0.0877 µM; with OVCAR-4 ovarian, 0.15 µM. Moreover, the GI50 with RPMI-8226 leukemia is 0.193 µM; with SF-295 CNS it was 0.0623 µM; with SK-OV-3 ovarian, 0.0284 µM; in the test on T-47D breast, 0.147 µM. Moreover, the TGI in the test with HS 578T breast was over 10.1 µM; with MOLT-4 leukemia, over 33.3 µM; in the test with NCI-H460 lung, over 33.3 µM; with NCI/ADR-RES ovarian it was over 33.3 µM; in the test with OVCAR-3 ovarian, 1.07 µM; with OVCAR-4 ovarian, over 33.3 µM. Moreover, the TGI is over 33.3 µM in the test with RPMI-8226 leukemia, 0.546 µM with SF-295 CNS, 0.596 µM with SK-OV-3 ovarian and 1.6 µM in the test on T-47D breast.

Consider `COc1ccc(C2CC(c3ccc4ccccc4c3)=NN2/C=C2\SC(=S)N(NC(=O)Cc3ccccc3Nc3c(Cl)cccc3Cl)C2=O)cc1` (stereo not drawn), for which the GI50 in the test with HS 578T breast is 0.415 µM; in the test on MOLT-4 leukemia, 0.473 µM; with NCI-H460 lung it was 0.388 µM; in the test with NCI/ADR-RES ovarian it was 0.421 µM; in the test on OVCAR-3 ovarian it was 0.343 µM; in the test with OVCAR-4 ovarian, 1.2 µM. Moreover, the GI50 in the test with RPMI-8226 leukemia is 0.309 µM; in the test with SF-295 CNS, 0.724 µM; with SK-OV-3 ovarian, 0.847 µM; in the test with T-47D breast, 0.788 µM. Moreover, the TGI was over 37.6 µM with HS 578T breast; over 100 µM in the test with MOLT-4 leukemia; over 34 µM in the test on NCI-H460 lung; over 34.5 µM in the test with NCI/ADR-RES ovarian; over 48 µM in the test with OVCAR-4 ovarian; 1.78 µM in the test with RPMI-8226 leukemia. The results for the TGI with SF-295 CNS, with SK-OV-3 ovarian and in the test on T-47D breast were over 32.7 µM, over 100 µM and 98.8 µM, respectively.

In the case of `Oc1ccccc1/C=N/Nc1nc2ccccc2s1`, the GI50 is 8.84 µM in the test on HS 578T breast; 4.4 µM in the test on MOLT-4 leukemia; 3.41 µM in the test on NCI-H460 lung; 6.1 µM in the test with NCI/ADR-RES ovarian; 2.46 µM in the test with OVCAR-3 ovarian; 2.31 µM in the test on OVCAR-4 ovarian. Further, the GI50 was 4.7 µM in the test with RPMI-8226 leukemia, 5.3 µM with SF-295 CNS, 15.2 µM in the test on SK-OV-3 ovarian and 2.11 µM with T-47D breast. The TGI in the test on HS 578T breast was 58 µM; in the test with MOLT-4 leukemia, over 100 µM; with NCI-H460 lung, over 100 µM; with NCI/ADR-RES ovarian, over 100 µM; in the test on OVCAR-3 ovarian, 34.7 µM; with OVCAR-4 ovarian, over 100 µM. Also, the TGI in the test on RPMI-8226 leukemia, in the test with SF-295 CNS, with SK-OV-3 ovarian and in the test on T-47D breast was over 100 µM in each case.

Take `CN(C)c1ccc(/C=N/NC(=O)CSc2nc3sc4c(c3c(=O)n2-c2ccccc2)CCCCC4)cc1`: the GI50 in the test with HS 578T breast is 3.85 µM; in the test with MOLT-4 leukemia, over 100 µM; in the test on NCI-H460 lung, 2.21 µM; in the test on NCI/ADR-RES ovarian it was 7.85 µM; in the test with OVCAR-3 ovarian it was 3.62 µM; in the test with OVCAR-4 ovarian it was 2.56 µM. Further, the GI50 with RPMI-8226 leukemia is over 100 µM; in the test on SF-295 CNS, 3.39 µM; in the test on SK-OV-3 ovarian, 11.3 µM; in the test on T-47D breast, over 100 µM. The TGI in the test with HS 578T breast was 40.5 µM; in the test on MOLT-4 leukemia, over 100 µM; in the test on NCI-H460 lung, 4.86 µM; with NCI/ADR-RES ovarian it was over 100 µM; in the test on OVCAR-3 ovarian, over 100 µM; in the test on OVCAR-4 ovarian it was 6.49 µM. The TGI with RPMI-8226 leukemia was over 100 µM; in the test with SF-295 CNS, 20.7 µM; with SK-OV-3 ovarian, 51 µM; with T-47D breast it was over 100 µM.

As for `COc1cc(/C=C/C(=O)c2ccc(F)cc2)ccc1OCCCCOc1cc2c(cc1OC)C(=O)N1CCCC1C=N2` (stereo not drawn), the GI50 in the test with HS 578T breast was 0.336 µM; with MOLT-4 leukemia, 0.317 µM; with NCI-H460 lung it was 0.83 µM; with NCI/ADR-RES ovarian, 0.936 µM; in the test with OVCAR-3 ovarian, 0.808 µM; in the test with OVCAR-4 ovarian, 2.99 µM. For the same molecule, the GI50 is 0.218 µM in the test with RPMI-8226 leukemia, 0.707 µM in the test on SF-295 CNS, 1.67 µM in the test with SK-OV-3 ovarian and 1.42 µM with T-47D breast. The TGI in the test with HS 578T breast was 9.36 µM; with MOLT-4 leukemia it was 2.18 µM; in the test with NCI-H460 lung it was 6.67 µM; with NCI/ADR-RES ovarian, over 26.4 µM; in the test on OVCAR-3 ovarian, 2 µM; in the test on OVCAR-4 ovarian it was over 23.9 µM. Further, the TGI with RPMI-8226 leukemia is 1.31 µM; in the test with SK-OV-3 ovarian it was over 44.5 µM; with T-47D breast it was over 33.2 µM.

Turning to `O=c1[nH]ccc2nc(N3CCC(O)CC3)nc(Nc3ccc(N4CCOCC4)cc3)c12`, the GI50 in the test with HS 578T breast is 2.01 µM; with MOLT-4 leukemia it was over 83.8 µM; in the test on NCI-H460 lung, 2.38 µM; with NCI/ADR-RES ovarian it was over 100 µM; with OVCAR-3 ovarian, 29.1 µM; in the test with OVCAR-4 ovarian, over 100 µM. Moreover, the GI50 was over 100 µM in the test with RPMI-8226 leukemia, over 100 µM in the test with SF-295 CNS, 0.59 µM in the test on SK-OV-3 ovarian and over 100 µM with T-47D breast. For the same molecule, the TGI with HS 578T breast is 9.03 µM; with MOLT-4 leukemia, over 100 µM; in the test with NCI-H460 lung it was over 100 µM; in the test with NCI/ADR-RES ovarian it was over 100 µM; in the test on OVCAR-3 ovarian, over 100 µM; in the test with OVCAR-4 ovarian, over 100 µM. Also, the TGI in the test with RPMI-8226 leukemia, with SF-295 CNS, with SK-OV-3 ovarian and in the test on T-47D breast was over 100 µM each time.

On to `Cc1cc(C)nc(NS(=O)(=O)c2ccc(Nc3nc4nc(NCc5ccccc5)nc(-c5ccc(O)cc5)c4c(=O)[nH]3)cc2)n1`, for which the GI50 in the test with HS 578T breast was 14.6 µM; in the test with MOLT-4 leukemia it was 2.38 µM; in the test with NCI-H460 lung, 49.9 µM; in the test on NCI/ADR-RES ovarian, over 100 µM; in the test on OVCAR-3 ovarian, 6.18 µM; in the test with OVCAR-4 ovarian, 32.1 µM. The GI50 in the test with RPMI-8226 leukemia is over 100 µM; in the test with SF-295 CNS, 16.7 µM; with SK-OV-3 ovarian, over 100 µM; in the test with T-47D breast, 18.4 µM. Further, the TGI in the test on HS 578T breast is 88.6 µM; with MOLT-4 leukemia it was 12.8 µM; in the test on NCI-H460 lung it was over 100 µM; in the test on NCI/ADR-RES ovarian it was over 100 µM; in the test on OVCAR-3 ovarian it was 29.5 µM; in the test with OVCAR-4 ovarian, over 100 µM. Further, the TGI was over 100 µM in the test on RPMI-8226 leukemia, 95 µM with SF-295 CNS, over 100 µM in the test on SK-OV-3 ovarian and over 100 µM in the test with T-47D breast.
